Data on 21 compounds can be found in patent publication US11141403B2, “Benzimidazoles and indoles as taro inhibitors” (MERCK SHARP & DOHME CORP., priority 2015, dated 2021).

The assay has as its system MRSA COL (MB5393). Put plainly: TarO Inhibitor/β-Lactam Synergy Assay. The assay is classed as cell-based, Staphylococcus aureus. The settings on record: 20 hours; for IC95: Staphylococcus aureus, TarO inhibitor alone, OD600, 95% growth inhibition, read-out: MITC95 TarO inhibitor alone, Bacteria: SA_MB5393; for MITC95 TarO inhibitor + 4 μg/mL IPM; Bacteria: SA_MB5393: in combination with 4 μg/mL imipenem; for MITC95 TarO inhibitor + 4 μg/mL IPM; Bacteria: SA_MB5393 / MITC95 TarO inhibitor + 8 μg/mL DCX; Bacteria: SA_MB5393: OD600; for MITC95 TarO inhibitor + 8 μg/mL DCX; Bacteria: SA_MB5393: in combination with 8 μg/mL dicloxacillin. As for the experimental part: The TarO inhibitor/β-lactam synergy assay was performed to measure the re-sensitization of methicillin-resistant Staphylococci bacteria (MB5393: MRSA COL) to β-lactam antibiotics by TarO inhibitors. MRSA COL is a hospital-acquired penicillinase-negative clinically isolated strain commonly used in Staphylococcus aureus studies and is fully resistant to the antimicrobial bioactivity of β-lactam antibiotics, including but not limited to imipenem and dicloxacillin. […] MRSA COL is fully refractory to β-lactam antibiotic effect at the current clinical breakpoint concentrations and as such MRSA COL is fully viable at these concentrations.
The β-lactam antibiotic concentration was fixed at the clinical breakpoint (imipenem 4 μg/ml or dicloxacillin 8 μg/ml) and the TarO inhibitors were titrated by 2 fold starting from the highest concentration of 200 μM with final DMSO concentration of 2% in the assay. 5×10^5 colony forming unit of MRSA COL in cation-adjusted Mueller Hinton broth (CAMHB) was then mixed and the assay plate was incubated for 20 hours at 37° C. without shaking. After 20 hours, the optical density at 600 nm (OD600) was read for all wells to determine relative growth of MRSA COL.

As for `CCN(C(=O)CCn1c2ccc(C#N)cc2nc1[C@H]1CC[C@H](CC)CC1)C1CCCCC1` [Example 22, 3-[5-cyano-2-(trans-4-ethylcyclohexyl)-1H-benzimidazol-1-yl]-N-cyclohexyl-N-ethylpropanamide], the IC95 was above 200 µM, the “MITC95 TarO inhibitor + 4 μg/mL IPM; Bacteria: SA_MB5393” value (shortened to “MITC95 TarO inhibitor + 4 μg/mL IPM”) stood at 0.36 µM and the “MITC95 TarO inhibitor + 8 μg/mL DCX; Bacteria: SA_MB5393” value (shortened to “MITC95 TarO inhibitor + 8 μg/mL DCX”) amounted to 0.88 µM.

As for `CCOC(=O)N1CCCC(c2nc3ccc(F)cc3n2CCC(=O)N(CC)C2CCCCC2)C1` (centres unmarked) [Example 23, Ethyl 3-(1-{3-[cyclohexyl(ethyl)amino]-3-oxopropyl}-6-fluoro-1H-benzimidazol-2-yl)piperidine-1-carboxylate], the IC95 is above 200 µM, the “MITC95 TarO inhibitor + 4 μg/mL IPM” value worked out at 9.38 µM and the “MITC95 TarO inhibitor + 8 μg/mL DCX” value worked out at 37.50 µM.

Turning to `CCN(C(=O)CCn1c2cc(-c3ccccc3)ccc2nc1[C@H]1CC[C@H](CC)CC1)C1CCCCC1` [Example 24, N-cyclohexyl-N-ethyl-3-(2-(trans-4-ethylcyclohexyl)-6-phenyl-1H-benzo[d]imidazol-1-yl)propanamide], the IC95 was above 200 µM, the “MITC95 TarO inhibitor + 4 μg/mL IPM” value was found to be 0.04 µM and the “MITC95 TarO inhibitor + 8 μg/mL DCX” value was 0.46 µM.

As for `CCN(C(=O)CCn1c2cc(-c3cnn(C)c3)ccc2nc1[C@H]1CC[C@H](CC)CC1)C1CCCCC1` [Example 25, N-cyclohexyl-N-ethyl-3-[2-(trans-4-ethylcyclohexyl)-6-(1-methyl-1H-pyrazol-4-yl)-1H-benzimidazol-1-yl]propanamide], the IC95 is above 200 µM, the “MITC95 TarO inhibitor + 4 μg/mL IPM” value was found to be 0.38 µM and the “MITC95 TarO inhibitor + 8 μg/mL DCX” value is 1.30 µM.

In the case of `CCN(C(=O)CCn1c2ccc(C3CC3)cc2nc1[C@H]1CC[C@H](CC)CC1)C1CCCCC1` [Example 26, N-cyclohexyl-3-[5-cyclopropyl-2-(trans-4-ethylcyclohexyl)-1H-benzimidazol-1-yl]-N-ethylpropanamide], the IC95 was above 200 µM, the “MITC95 TarO inhibitor + 4 μg/mL IPM” value amounted to 1.30 µM and the “MITC95 TarO inhibitor + 8 μg/mL DCX” value is 4.17 µM.

Take `CCN(C(=O)CCn1c2cc(CN)ccc2nc1[C@H]1CC[C@H](CC)CC1)C1CCCCC1` [Example 27, 3-[6-(aminomethyl)-2-(trans-4-ethylcyclohexyl)-1H-benzimidazol-1-yl]-N-cyclohexyl-N-ethylpropanamide]: the IC95 is above 200 µM, the “MITC95 TarO inhibitor + 4 μg/mL IPM” value was determined as 37.50 µM and the “MITC95 TarO inhibitor + 8 μg/mL DCX” value amounted to 50 µM.

Consider `CCN(C(=O)CCn1c2cc(C[C@H]3CCOC3)ccc2nc1[C@H]1CC[C@H](CC)CC1)C1CCCCC1` [Example 28, N-cyclohexyl-N-ethyl-3-{2-(trans-4-ethylcyclohexyl)-6-[(3S)-tetrahydrofuran-3-ylmethyl]-1H-benzimidazol-1-yl}propanamide], for which the IC95 is above 200 µM, the “MITC95 TarO inhibitor + 4 μg/mL IPM” value was determined as 1.30 µM and the “MITC95 TarO inhibitor + 8 μg/mL DCX” value was found to be 4.17 µM.

For `CCN(C(=O)CCn1c2cccc(C[C@H]3CCOC3)c2nc1[C@H]1CC[C@H](CC)CC1)C1CCCCC1` [Example 29, N-cyclohexyl-N-ethyl-3-{2-(trans-4-ethylcyclohexyl)-4-[(3S)-tetrahydrofuran-3-ylmethyl]-1H-benzimidazol-1-yl}propanamide], the IC95 was above 200 µM, the “MITC95 TarO inhibitor + 4 μg/mL IPM” value is 1.56 µM and the “MITC95 TarO inhibitor + 8 μg/mL DCX” value is 6.25 µM.

On to `CCN(C(=O)CCn1c2cc(CN3CCN(CC(F)(F)F)CC3)ccc2nc1[C@H]1CC[C@H](CC)CC1)C1CCCCC1` [Example 30, N-cyclohexyl-N-ethyl-3-[2-(trans-4-ethylcyclohexyl)-6-{[4-(2,2,2-trifluoroethyl)piperazin-1-yl]methyl}-1H-benzimidazol-1-yl]propanamide], for which the IC95 is above 200 µM, the “MITC95 TarO inhibitor + 4 μg/mL IPM” value stood at 18.75 µM and the “MITC95 TarO inhibitor + 8 μg/mL DCX” value came out at 25 µM.

As to `CCN(C(=O)CCn1c2cc(CN3CC(F)(F)C3)ccc2nc1[C@H]1CC[C@H](CC)CC1)C1CCCCC1` [Example 31, N-cyclohexyl-3-{6-[(3,3-difluoroazetidin-1-yl)methyl]-2-(trans-4-ethylcyclohexyl)-1H-benzimidazol-1-yl}-N-ethylpropanamide], the IC95 is above 200 µM, the “MITC95 TarO inhibitor + 4 μg/mL IPM” value was found to be 6.25 µM and the “MITC95 TarO inhibitor + 8 μg/mL DCX” value is 50 µM.

For `CCN(C(=O)CCn1c2cccc(N3CCOCC3)c2nc1[C@H]1CC[C@H](CC)CC1)C1CCCCC1` [Example 32, N-cyclohexyl-N-ethyl-3-[2-(trans-4-ethylcyclohexyl)-4-morpholin-4-yl-1H-benzimidazol-1-yl]propanamide], the IC95 was above 200 µM, the “MITC95 TarO inhibitor + 4 μg/mL IPM” value came out at 20.83 µM and the “MITC95 TarO inhibitor + 8 μg/mL DCX” value was found to be 20.83 µM.

For the compound `CC1(C)[C@@H]2CC[C@@]1(C)[C@H](NC(=O)CCn1c3ccccc3nc1[C@H]1CC[C@@H](C(C)(C)C)CC1)C2` [Example 33, 3-[2-(cis-4-tert-butylcyclohexyl)-1H-benzimidazol-1-yl]-N-[(1R,2R,4R)-1,7,7-trimethylbicyclo[2.2.1]hept-2-yl]propanamide], the IC95 was above 200 µM and the “MITC95 TarO inhibitor + 4 μg/mL IPM” value came to 0.06 µM.

With `CCN(C(=O)CCn1c(-c2ccc(OCC(F)(F)F)cc2)nc2ccccc21)C1CCCCC1` [Example 34, N-cyclohexyl-N-ethyl-3-{2-[4-(2,2,2-trifluoroethoxy)phenyl]-1H-benzimidazol-1-yl}propanamide], the IC95 is above 200 µM, the “MITC95 TarO inhibitor + 4 μg/mL IPM” value was determined as 0.25 µM and the “MITC95 TarO inhibitor + 8 μg/mL DCX” value stood at 0.54 µM.

`CCN(C(=O)CCn1c(C2CCCCC2)nc2ccccc21)C1CCCCC1` [Example 35, N-cyclohexyl-3-(2-cyclohexyl-1H-benzimidazol-1-yl)-N-ethylpropanamide]: the IC95 is above 200 µM, the “MITC95 TarO inhibitor + 4 μg/mL IPM” value was 1.95 µM and the “MITC95 TarO inhibitor + 8 μg/mL DCX” value stood at 9.38 µM.

`CCN(C(=O)CCn1c(-c2ccc(C(=O)OC)cc2)nc2ccccc21)C1CCCCC1` [Example 36, methyl 4-(1-{3-[cyclohexyl(ethyl)amino]-3-oxopropyl}-1H-benzimidazol-2-yl)benzoate]: the IC95 was above 200 µM, the “MITC95 TarO inhibitor + 4 μg/mL IPM” value worked out at 0.68 µM and the “MITC95 TarO inhibitor + 8 μg/mL DCX” value came to 3.91 µM.

With `CCOc1ccc(-c2nc3ccccc3n2CCC(=O)N(CC)C2CCCCC2)cn1` [Example 38, N-cyclohexyl-3-[2-(6-ethoxypyridin-3-yl)-1H-benzimidazol-1-yl]-N-ethylpropanamide], the IC95 is above 200 µM, the “MITC95 TarO inhibitor + 4 μg/mL IPM” value worked out at 2.08 µM and the “MITC95 TarO inhibitor + 8 μg/mL DCX” value came out at 12.50 µM.

For `CN(C(=O)CCn1c(C2CCCCC2)nc2ccccc21)C1CCCCC1` [Example 39, N-cyclohexyl-3-(2-cyclohexyl-1H-benzimidazol-1-yl)-N-methylpropanamide], the IC95 was above 200 µM, the “MITC95 TarO inhibitor + 4 μg/mL IPM” value was 4.69 µM and the “MITC95 TarO inhibitor + 8 μg/mL DCX” value is 12.50 µM.

Turning to `CC(C)(C)OC(=O)NCC1CCC(c2nc3ccccc3n2CCC(=O)NC2C[C@H]3CC[C@]2(C)C3(C)C)CC1` (stereo partly drawn) [Example 40, tert-butyl ({4-[1-(3-oxo-3-{[(1R,4R)-1,7,7-trimethylbicyclo[2.2.1]hept-2-yl]amino}propyl)-1H-benzimidazol-2-yl]cyclohexyl}methyl) carbamate], the IC95 was above 200 µM, the “MITC95 TarO inhibitor + 4 μg/mL IPM” value stood at 2.34 µM and the “MITC95 TarO inhibitor + 8 μg/mL DCX” value stood at 9.38 µM.

Regarding `CC(C)(C)OC(=O)N1CCC(c2nc3ccccc3n2CCC(=O)NC2C[C@H]3CC[C@]2(C)C3(C)C)C1` (stereo partly drawn) [Example 41, tert-butyl 3-[1-(3-oxo-3-{[(1R,4R)-1,7,7-trimethylbicyclo[2.2.1]hept-2-yl]amino}propyl)-1H-benzimidazol-2-yl]pyrrolidine-1-carboxylate], the IC95 was above 200 µM, the “MITC95 TarO inhibitor + 4 μg/mL IPM” value turned out to be 5.47 µM and the “MITC95 TarO inhibitor + 8 μg/mL DCX” value is 37.50 µM.

In the case of `CCN(C(=O)CCn1c(-c2ccc(-n3ccnn3)cc2)nc2ccccc21)C1CCCCC1` [Example 42, N-cyclohexyl-N-ethyl-3-{2-[4-(1H-1,2,3-triazol-1-yl)phenyl]-1H-benzimidazol-1-yl}propanamide], the IC95 was above 200 µM, the “MITC95 TarO inhibitor + 4 μg/mL IPM” value stood at 18.75 µM and the “MITC95 TarO inhibitor + 8 μg/mL DCX” value was found to be 25.00 µM.

As for `CCN(C(=O)CCn1c(C2CCCN(c3nccc(OC)n3)C2)nc2ccccc21)C1CCCCC1` (centres unmarked) [Example 43, N-cyclohexyl-N-ethyl-3-(2-(1-(4-methoxypyrimidin-2-yl)piperidin-3-yl)-1H-benzo[d]imidazol-1-yl)propanamide], the IC95 is 100 µM, the “MITC95 TarO inhibitor + 4 μg/mL IPM” value amounted to 0.20 µM and the “MITC95 TarO inhibitor + 8 μg/mL DCX” value amounted to 0.78 µM.
